Consider eleven compounds from patent publication US11673897B2, “Compounds for the treatment of kinase-dependent disorders” (Exelixis, Inc., priority 2018, dated 2023).

Holding throughout (format): cell-based
In one assay the target is AXL (Homo sapiens (Human), UniProt P30530). The assay is described as follows: AXL autophosphorylation ELISA in A-172 cells. To be noted: cellular, Gas6-stimulated, phospho-AXL ELISA. As to the method:
A-172 glioblastoma cells (ATCC #CRL-1620) were seeded at 2.5×10^5 cells/well onto 24-well plates (Greiner #662165), in […] (Thermo Fisher #11995-040) containing 10% FBS (Thermo Fisher #26140-079), […] (Thermo Fisher #11140-050), […] (Thermo Fisher #35050-061), and 1% Penicillin Streptomycin (Thermo Fisher #15140-122). A-172 cells were incubated at 37° C., […] for 24 hand then starved for 24 h in serum-free medium. Test compounds were serially diluted to produce an 8-point dose curve in fresh serum-free medium to a final concentration of 0.3% DMSO (vehicle) and added to the cells and incubated for 1 h. Cells were then stimulated with 1 μg/mL recombinant human Gas6 (R&D Systems #885-GSB-500) for 15 min, washed with cold PBS, and immediately lysed with 150 μL of cold 1× lysis buffer [20 mM Tris, 137 mM sodium chloride, 2 mM EDTA, 10% glycerol, 1% NP-40 alternative, 1 mM activated sodium orthovanadate, 1 mM PefaBloc SC (Sigma-Aldrich #11429868001), protease/phosphatase inhibitor tablet (Thermo Fisher #A32959)]. Lysates were collected and 100 μL/well added into the human phospho-AXL DuoSet IC ELISA (R&D Systems #DYC2228-2). Assay was performed according to manufacturer's instructions and sample phospho-AXL concentrations were extrapolated using human phospho-AXL control (R&D Systems #841645) as a standard. Positive control wells (100% activity) contained Gas6-stimulated, DMSO-treated cell lysates. Negative control wells (0% activity) contained Gas6-stimulated, reference inhibitor-treated cell lysates. IC50 values were calculated by nonlinear regression analysis using a 4-parameter logistic curve fit in ActivityBase XE (IDBS).

Another assay has as its target Mer (Homo sapiens (Human), UniProt Q12866). The assay is described as follows: Mer autophosphorylation ELISA in transient transfected 293A cells. To be noted: cellular, MERTK-transfected 293A cells, phospho-Mer ELISA. As to the method: 293A cells (Thermo Fisher #R70507) were seeded at 1.5×10^6 cells/well onto 100 mm dish (Greiner #664169), in DMEM (Thermo Fisher #11995-040) containing 10% FBS (Thermo Fisher #26140-079), 1% MEM NEAA (Thermo Fisher #11140-050), 1% GlutaMax (Thermo Fisher #35050-061), and 1% Penicillin Streptomycin (Thermo Fisher #15140-122). 293A cells were incubated at 37° C., 5% CO2 for 24 h and then transfected with 6 μg MERTK DNA (Genecopoeia #EX-Z8208-M02) using TransIT LT1 transfection reagent (Mirus-Bio #MIR2305). After 24 h incubation, the transfected 293A cells were seeded at 1×10^5 cells/well onto 96-well plates (Corning #3904) in DMEM growth medium overnight. Test compounds were serially diluted to produce an 8-point dose curve in fresh serum-free medium to a final concentration of 0.3% DMSO (vehicle) and added to the cells and incubated for 1 h. Cells were then immediately lysed with 150 μL of cold 1× lysis buffer [20 mM Tris, 137 mM sodium chloride, 2 mM EDTA, 10% glycerol, 1% NP-40 alternative, 1 mM activated sodium orthovanadate, 1 mM PefaBloc SC (Sigma-Aldrich #11429868001), protease/phosphatase inhibitor tablet (Thermo Fisher #A32959)]. Lysates were clarified by centrifugation and 50 μL/well added into the human phospho-Mer DuoSet IC ELISA (R&D Systems #DYC2579-2). Assay was performed according to manufacturer's instructions and sample phospho-Mer concentrations were extrapolated using human phospho-Mer control (R&D Systems #841793) as a standard. Positive control wells (100% activity) contained DMSO-treated cell lysates. Negative control wells (0% activity) contained reference inhibitor-treated cell lysates. IC50 values were calculated by nonlinear regression analysis using a 4-parameter logistic curve fit in ActivityBase XE (IDBS).

The target in the next assay is Met (Homo sapiens (Human), UniProt P08581). The experiment in a line: Met autophosphorylation ELISA in PC-3 cells. To be noted: cellular, HGF-stimulated, phospho-Met ELISA, read-out: c-Met IC50. As to the method:
PC-3 prostate cancer cells (ATCC #CRL-1435) were seeded at 4×10^4 cells/well onto 24-well plates (Greiner #662165), in DMEM (Thermo Fisher #11995-040) containing 10% FBS (Thermo Fisher #26140-079), 1% MEM NEAA (Thermo Fisher #11140-050), 1% GlutaMax (Thermo Fisher #35050-061), and 1% Penicillin Streptomycin (Thermo Fisher #15140-122). PC-3 cells were incubated at 37° C., 5% CO2 for 24 h and then starved for 3 h in serum-free medium. Test compounds were serially diluted to produce an 8-point dose curve in fresh serum-free medium to a final concentration of 0.3% DMSO (vehicle) and added to the cells and incubated for 1 h. Cells were then stimulated with 100 ng/mL recombinant human HGF (R&D Systems #294-HG-250) for 10 min, washed with cold PBS, and immediately lysed with 130 μL of cold 1× lysis buffer [20 mM Tris, 137 mM sodium chloride, 2 mM EDTA, 10% glycerol, 1% NP-40 alternative, 1 mM activated sodium orthovanadate, 1 mM PefaBloc SC (Sigma-Aldrich #11429868001), and protease/phosphatase inhibitor tablet (Thermo Fisher #A32959)]. Lysates were clarified by centrifugation and 100 μL/well added into the PathScan phospho-Met (panTyr) Sandwich ELISA (Cell Signaling Technology #7333). Assay was performed according to manufacturer's instructions. Positive control wells (100% activity) contained HGF-stimulated, DMSO-treated cell lysates. Negative control wells (0% activity) contained HGF-stimulated, reference inhibitor-treated cell lysates. IC50 values were calculated by nonlinear regression analysis using a 4-parameter logistic curve fit in ActivityBase XE (IDBS).

For the next assay, the target named is KDR (Homo sapiens (Human), UniProt P35968). The experiment in a line: KDR autophosphorylation ELISA in HUVEC cells. The conditions noted are these: cellular, VEGF165-stimulated, phospho-KDR ELISA. As to the method: Human umbilical vein endothelial cells or HUVEC (Lonza #C2519A) were seeded at 2×10^4 cells/well onto 96-well plates (Corning #3904), in EGM-2 growth medium (Lonza #CC-3162) containing 1% Penicillin Streptomycin (Thermo Fisher #15140-122). HUVEC cells were incubated at 37° C., 5% CO2 for 24 h and then starved for 24 h in serum-free EBM-2 basal medium (Lonza #CC-3156) containing 1% Penicillin Streptomycin. Test compounds were serially diluted to produce an 8-point dose curve in fresh serum-free medium to a final concentration of 0.3% DMSO (vehicle) and added to the cells and incubated for 1 h. Cells were then stimulated with 100 ng/mL recombinant human VEGF165 (R&D Systems #293-VE-500) for 5 min, washed with cold PBS, and immediately lysed with 130 μL of cold 1× lysis buffer [20 mM Tris, 137 mM sodium chloride, 2 mM EDTA, 10% glycerol, 1% NP-40 alternative, 1 mM activated sodium orthovanadate, 1 mM PefaBloc SC (Sigma-Aldrich #11429868001), protease/phosphatase inhibitor tablet (Thermo Fisher #A32959)]. Lysates were collected and 100 μL/well added into the human phospho-KDR DuoSet IC ELISA (R&D Systems #DYC1766-2). Assay was performed according to manufacturer's instructions and sample phospho-KDR concentrations were extrapolated using human phospho-KDR control (R&D Systems #841421) as a standard. Positive control wells (100% activity) contained VEGF165-stimulated, DMSO-treated cell lysates. Negative control wells (0% activity) contained non-stimulated cell lysates. IC50 values were calculated by nonlinear regression analysis using a 4-parameter logistic curve fit in ActivityBase XE (IDBS).

Bounds are passed on as bounds.

Sequence of KDR (P35968 20-1356): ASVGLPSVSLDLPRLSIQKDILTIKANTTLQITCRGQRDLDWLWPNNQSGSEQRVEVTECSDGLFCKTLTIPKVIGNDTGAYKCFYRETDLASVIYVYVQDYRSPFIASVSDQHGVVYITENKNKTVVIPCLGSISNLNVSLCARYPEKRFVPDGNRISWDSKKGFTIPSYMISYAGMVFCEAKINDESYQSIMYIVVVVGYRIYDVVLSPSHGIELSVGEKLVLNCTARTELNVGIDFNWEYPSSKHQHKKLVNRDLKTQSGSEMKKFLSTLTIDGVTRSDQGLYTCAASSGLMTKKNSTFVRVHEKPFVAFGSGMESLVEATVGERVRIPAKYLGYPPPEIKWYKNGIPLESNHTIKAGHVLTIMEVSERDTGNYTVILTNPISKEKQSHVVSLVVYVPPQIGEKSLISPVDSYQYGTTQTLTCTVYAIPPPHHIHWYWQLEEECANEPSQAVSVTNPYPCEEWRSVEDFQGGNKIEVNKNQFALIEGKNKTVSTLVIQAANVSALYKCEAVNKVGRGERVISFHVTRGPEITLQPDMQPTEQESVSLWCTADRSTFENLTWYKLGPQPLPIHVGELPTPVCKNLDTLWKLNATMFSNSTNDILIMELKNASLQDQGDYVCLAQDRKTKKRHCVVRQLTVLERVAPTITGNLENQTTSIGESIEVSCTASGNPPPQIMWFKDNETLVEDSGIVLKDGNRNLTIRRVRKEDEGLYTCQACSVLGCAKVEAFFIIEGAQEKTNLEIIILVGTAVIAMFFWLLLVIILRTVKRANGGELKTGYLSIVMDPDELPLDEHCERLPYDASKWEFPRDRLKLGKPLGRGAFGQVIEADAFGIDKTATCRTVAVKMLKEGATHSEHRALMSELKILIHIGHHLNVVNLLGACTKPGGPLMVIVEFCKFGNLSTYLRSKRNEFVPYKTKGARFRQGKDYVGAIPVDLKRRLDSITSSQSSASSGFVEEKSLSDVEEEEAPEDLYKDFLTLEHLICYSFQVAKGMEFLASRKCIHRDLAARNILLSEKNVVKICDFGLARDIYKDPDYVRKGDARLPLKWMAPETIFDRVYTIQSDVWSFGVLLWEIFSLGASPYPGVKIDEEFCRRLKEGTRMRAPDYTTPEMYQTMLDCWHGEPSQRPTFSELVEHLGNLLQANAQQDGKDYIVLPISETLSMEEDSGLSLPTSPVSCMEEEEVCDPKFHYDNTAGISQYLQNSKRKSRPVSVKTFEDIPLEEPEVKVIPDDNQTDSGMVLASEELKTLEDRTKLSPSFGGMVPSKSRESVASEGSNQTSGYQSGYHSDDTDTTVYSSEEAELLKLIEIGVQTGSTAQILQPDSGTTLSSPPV
Sequence of Met (P08581 25-1390): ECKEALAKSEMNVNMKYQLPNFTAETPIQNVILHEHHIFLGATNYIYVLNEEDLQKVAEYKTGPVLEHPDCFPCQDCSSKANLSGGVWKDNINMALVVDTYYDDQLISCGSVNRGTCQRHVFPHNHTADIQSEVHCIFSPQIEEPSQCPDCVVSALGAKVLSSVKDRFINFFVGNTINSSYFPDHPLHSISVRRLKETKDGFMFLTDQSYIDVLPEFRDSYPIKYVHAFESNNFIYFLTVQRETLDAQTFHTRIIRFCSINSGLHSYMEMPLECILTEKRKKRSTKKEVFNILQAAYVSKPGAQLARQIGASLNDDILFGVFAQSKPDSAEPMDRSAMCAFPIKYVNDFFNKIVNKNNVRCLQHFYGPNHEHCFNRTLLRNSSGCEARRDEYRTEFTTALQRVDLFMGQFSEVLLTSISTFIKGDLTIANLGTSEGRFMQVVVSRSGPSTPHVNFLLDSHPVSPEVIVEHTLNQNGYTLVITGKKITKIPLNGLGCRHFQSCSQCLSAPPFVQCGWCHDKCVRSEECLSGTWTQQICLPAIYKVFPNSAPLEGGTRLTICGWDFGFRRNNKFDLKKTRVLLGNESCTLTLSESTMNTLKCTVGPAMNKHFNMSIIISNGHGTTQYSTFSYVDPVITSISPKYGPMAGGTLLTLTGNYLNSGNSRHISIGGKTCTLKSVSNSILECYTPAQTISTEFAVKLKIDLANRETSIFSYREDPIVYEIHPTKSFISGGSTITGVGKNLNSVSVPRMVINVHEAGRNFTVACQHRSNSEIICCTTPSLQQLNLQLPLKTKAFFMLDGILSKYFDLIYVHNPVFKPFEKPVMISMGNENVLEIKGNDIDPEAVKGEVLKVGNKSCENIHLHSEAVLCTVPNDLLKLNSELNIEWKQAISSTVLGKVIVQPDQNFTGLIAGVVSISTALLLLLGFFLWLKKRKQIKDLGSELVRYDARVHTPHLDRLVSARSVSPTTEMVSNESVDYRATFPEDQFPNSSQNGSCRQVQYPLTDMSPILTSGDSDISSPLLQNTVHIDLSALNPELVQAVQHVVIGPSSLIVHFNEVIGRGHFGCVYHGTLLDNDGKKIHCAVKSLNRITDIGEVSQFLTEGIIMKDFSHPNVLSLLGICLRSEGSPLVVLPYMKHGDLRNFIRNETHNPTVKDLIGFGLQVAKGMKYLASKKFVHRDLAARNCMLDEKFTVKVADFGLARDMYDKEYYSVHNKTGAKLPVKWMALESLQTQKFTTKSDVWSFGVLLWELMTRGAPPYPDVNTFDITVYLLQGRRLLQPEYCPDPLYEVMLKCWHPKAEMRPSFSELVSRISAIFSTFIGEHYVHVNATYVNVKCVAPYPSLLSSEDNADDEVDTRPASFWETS
Sequence of AXL (P30530 26-894): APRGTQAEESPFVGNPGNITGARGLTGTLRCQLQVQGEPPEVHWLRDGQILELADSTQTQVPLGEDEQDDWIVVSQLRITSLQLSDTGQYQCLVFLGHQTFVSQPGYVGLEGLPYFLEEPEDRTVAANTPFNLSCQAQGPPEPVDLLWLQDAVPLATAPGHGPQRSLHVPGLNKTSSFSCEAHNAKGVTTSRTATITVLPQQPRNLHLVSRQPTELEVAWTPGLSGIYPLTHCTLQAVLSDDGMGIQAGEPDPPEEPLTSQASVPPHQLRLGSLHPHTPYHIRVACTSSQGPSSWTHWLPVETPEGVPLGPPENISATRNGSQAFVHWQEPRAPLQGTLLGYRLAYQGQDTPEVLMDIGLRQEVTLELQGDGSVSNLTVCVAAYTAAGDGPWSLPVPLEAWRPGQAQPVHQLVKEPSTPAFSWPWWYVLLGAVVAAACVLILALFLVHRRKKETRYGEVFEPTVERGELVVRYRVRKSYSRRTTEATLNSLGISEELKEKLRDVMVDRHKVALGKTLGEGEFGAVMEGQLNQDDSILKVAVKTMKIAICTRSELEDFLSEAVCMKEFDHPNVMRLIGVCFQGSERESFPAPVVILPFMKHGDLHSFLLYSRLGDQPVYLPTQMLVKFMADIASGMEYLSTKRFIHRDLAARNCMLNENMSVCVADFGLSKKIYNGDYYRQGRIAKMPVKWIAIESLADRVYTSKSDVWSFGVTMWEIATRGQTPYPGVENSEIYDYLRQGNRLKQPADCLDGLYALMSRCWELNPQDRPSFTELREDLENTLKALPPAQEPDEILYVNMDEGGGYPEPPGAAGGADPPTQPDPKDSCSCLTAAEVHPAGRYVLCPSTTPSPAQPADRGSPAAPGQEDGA
Sequence of Mer (Q12866 21-999): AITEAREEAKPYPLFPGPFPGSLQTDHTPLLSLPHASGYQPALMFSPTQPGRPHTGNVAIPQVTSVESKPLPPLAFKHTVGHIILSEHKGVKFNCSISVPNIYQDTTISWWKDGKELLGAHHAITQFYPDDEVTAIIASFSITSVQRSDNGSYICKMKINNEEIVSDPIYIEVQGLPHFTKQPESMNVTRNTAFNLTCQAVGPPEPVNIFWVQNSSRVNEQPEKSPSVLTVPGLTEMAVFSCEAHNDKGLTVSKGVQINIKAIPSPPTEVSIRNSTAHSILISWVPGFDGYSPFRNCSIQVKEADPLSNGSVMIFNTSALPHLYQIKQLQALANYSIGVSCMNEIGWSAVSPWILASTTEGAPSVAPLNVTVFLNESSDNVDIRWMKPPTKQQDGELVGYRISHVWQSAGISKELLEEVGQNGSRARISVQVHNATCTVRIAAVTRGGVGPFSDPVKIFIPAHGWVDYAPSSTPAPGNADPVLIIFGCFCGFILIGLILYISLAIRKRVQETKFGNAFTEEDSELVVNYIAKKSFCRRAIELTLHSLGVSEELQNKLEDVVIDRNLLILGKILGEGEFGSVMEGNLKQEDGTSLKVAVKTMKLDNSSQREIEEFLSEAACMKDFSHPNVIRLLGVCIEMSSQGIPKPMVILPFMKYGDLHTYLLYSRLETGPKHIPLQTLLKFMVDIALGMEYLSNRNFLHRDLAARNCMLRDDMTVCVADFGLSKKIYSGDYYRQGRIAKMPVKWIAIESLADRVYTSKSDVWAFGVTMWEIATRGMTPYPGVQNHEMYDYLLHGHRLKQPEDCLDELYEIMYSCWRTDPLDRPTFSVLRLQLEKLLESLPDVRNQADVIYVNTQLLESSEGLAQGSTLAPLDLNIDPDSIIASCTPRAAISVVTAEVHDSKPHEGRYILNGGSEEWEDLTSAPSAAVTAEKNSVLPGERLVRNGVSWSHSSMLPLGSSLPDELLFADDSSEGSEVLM

Consider `CNC(=O)c1cc2c(Oc3ncc(NC(=O)C4(C(=O)Nc5ccc(F)cc5)CC4)cc3Cl)ccnc2cc1OC` [Compound 19, 1-N′-[5-Chloro-6-[7-methoxy-6-(methylcarbamoyl)quinolin-4-yl]oxypyridin-3-yl]-1-N-(4-fluorophenyl)cyclopropane-1,1-dicarboxamide], for which the IC50 at AXL was no more than 10 nM; on Mer, 10 to 100 nM; on Met, 10 to 100 nM; against KDR it was greater than 300 nM.

`COc1cc2nccc(Oc3ncc(NC(=O)C4(C(=O)Nc5ccc(F)cc5)CC4)cc3C(F)(F)F)c2nc1OC` [Compound 89, 1-N′-[6-[(6,7-Dimethoxy-1,5-naphthyridin-4-yl)oxy]-5-(trifluoromethyl)pyridin-3-yl]-1-N-(4-fluorophenyl)cyclopropane-1,1-dicarboxamide]: the half-inhibitory concentration (IC50) on AXL, on Met and against KDR was greater than 300 nM in each case.

Consider `COc1cc2nccc(Oc3nc(C)c(NC(=O)C4(C(=O)Nc5ccc(F)cc5)CC4)cc3Br)c2nc1OC` [Compound 90, 1-N′-[5-Bromo-6-[(6,7-dimethoxy-1,5-naphthyridin-4-yl)oxy]-2-methylpyridin-3-yl]-1-N-(4-fluorophenyl)cyclopropane-1,1-dicarboxamide], for which the IC50 on AXL, at Met and on KDR was greater than 300 nM each time.

For `COc1cc2nccc(Oc3ncc(NC(=O)C4(C(=O)Nc5ccc(F)cc5)CC4)cc3F)c2nc1OCCCN1CCOCC1` [Compound 135, 1-N′-[5-Fluoro-6-[[7-methoxy-6-(3-morpholin-4-ylpropoxy)-1,5-naphthyridin-4-yl]oxy]pyridin-3-yl]-1-N-(4-fluorophenyl)cyclopropane-1,1-dicarboxamide], the IC50 at AXL, at Met and at KDR was greater than 300 nM each time.

For the compound `COc1cc2nccc(Oc3ncc(NC(=O)C4(C(=O)Nc5ccc(F)cc5)CC4)cc3C)c2nc1OC` [Compound 85, 1-N′-[6-[(6,7-Dimethoxy-1,5-naphthyridin-4-yl)oxy]-5-methylpyridin-3-yl]-1-N-(4-fluorophenyl)cyclopropane-1,1-dicarboxamide], the IC50 against AXL, at Met and against KDR was greater than 300 nM throughout.

As for `COCCc1noc(-c2cc3c(Oc4ncc(NC(=O)C5(C(=O)Nc6ccc(F)cc6)CC5)cc4F)ccnc3cc2OC)n1` [Compound 26, 1-N′-[5-Fluoro-6-[7-methoxy-6-[3-(2-methoxyethyl)-1,2,4-oxadiazol-5-yl]quinolin-4-yl]oxypyridin-3-yl]-1-N-(4-fluorophenyl)cyclopropane-1,1-dicarboxamide], the IC50 at AXL, on Met and at KDR was greater than 300 nM throughout.

Turning to `COc1cc2ncnc(Oc3ccc(NC(=O)C4(C(=O)Nc5ccc(F)cc5)CC4)cn3)c2nc1OC` [Compound 145, 1-N′-[6-(6,7-Dimethoxypyrido[3,2-d]pyrimidin-4-yl)oxypyridin-3-yl]-1-N-(4-fluorophenyl)cyclopropane-1,1-dicarboxamide], the IC50 at AXL was 100 to 300 nM; on Met, greater than 300 nM; against KDR, greater than 300 nM.

As to `COc1nc2c(Oc3ncc(NC(=O)C4(C(=O)Nc5ccc(F)cc5)CC4)cc3F)ccnc2cc1O` [Compound 121, 1-N′-[5-Fluoro-6-[(7-hydroxy-6-methoxy-1,5-naphthyridin-4-yl)oxy]pyridin-3-yl]-1-N-(4-fluorophenyl)cyclopropane-1,1-dicarboxamide], the IC50 at AXL, at Met and on KDR was greater than 300 nM each time.

With `COc1cc2nccc(Oc3ncc(NC(=O)C4(C(=O)Nc5ccc(F)cc5)CC4)cc3OC)c2nc1OC` [Compound 92, 1-N′-[6-[(6,7-Dimethoxy-1,5-naphthyridin-4-yl)oxy]-5-methoxypyridin-3-yl]-1-N-(4-fluorophenyl)cyclopropane-1,1-dicarboxamide], the IC50 against AXL, at Met and at KDR was greater than 300 nM each time.

Regarding `COCc1noc(-c2cc3c(Oc4ncc(NC(=O)C5(C(=O)Nc6ccc(F)cc6)CC5)cc4F)ccnc3cc2OC)n1` [Compound 25, 1-N′-[5-Fluoro-6-[7-methoxy-6-[3-(methoxymethyl)-1,2,4-oxadiazol-5-yl]quinolin-4-yl]oxypyridin-3-yl]-1-N-(4-fluorophenyl)cyclopropane-1,1-dicarboxamide], the IC50 against AXL, at Met and at KDR was greater than 300 nM throughout.

For the compound `CNC(=O)c1cc2c(Oc3ncc(NC(=O)C4(C(=O)Nc5ccc(F)cc5)CC4)cc3F)ccnc2cc1OCCO` [Compound 44, 1-N′-[5-Fluoro-6-[7-(2-hydroxyethoxy)-6-(methylcarbamoyl)-quinolin-4-yl]oxypyridin-3-yl]-1-N-(4-fluorophenyl)cyclopropane-1,1-dicarboxamide], the IC50 against AXL is 10 to 100 nM; at Met it was 10 to 100 nM; on KDR, greater than 300 nM.
